Measured values taken from US6395896B2, “Pyridazine derivatives, manufacturing method and related composition” (Shiseido Co., Ltd., priority 1999, dated 2002).

Legend:
[1] = Colorant stabilization effect (photostabilizer, sunlight exposure); set-up: key to Sunlight exposure (80 MJ) Appearance: A: No change; B: No almost change; C: Yes change; key to Sunlight exposure (80 MJ) ΔE: ΔE color difference (Lab) vs. color before sunlight exposure; conditions: photostabilizer 0.05 wt %
Procedure: First of all, the photostabilization effect and appearance change of a composition in each pigment were studied by the following evaluation formulation.
Each test sample was prepared. Observation of appearance change (visual evaluation) and measurement of color difference (ΔE) were carried out in samples exposed to sunlight exposure (around 80 MJ).
Color difference was measured by Lab coordinate system with spectrophotometer. Color difference was calculated on the basis of the color before sunlight exposure. Namely, from measured value (L1,a1,b1) before sunlight exposure, color difference (ΔE) was calculated by following formula.

[2] = Drug stabilization effect (photostabilizer, sunlight exposure); set-up: key to Sunlight exposure (80 MJ) Appearance: A: No change; B: No almost change; C: Yes change; conditions: photostabilizer 0.05, amounts wt %
Procedure: Next, the photo stabilization effect and changes in appearance in drug compositions were studied according to the following evaluation formulation.
Each test sample was prepared. Appearance changes of the samples exposed to sunlight (80 MJ) was observed (visual evaluation). Also, residual yield was measured by liquid chromatography.

[3] = Perfume stabilization effect (photostabilizer, sunlight exposure, judgement by perfumier); set-up: key to Sunlight exposure (80 MJ) Smell evaluation / Sunlight exposure (80 MJ) evaluation: A: No change; B: No almost change; C: Yes change
Procedure: Next, the photostabilization effect for each perfume was studied by the following evaluation formulation.
Each test sample was prepared. Change of smell of sample exposed to sunlight (80 MJ) was observed (judgement by perfumier).

[4] = Red No. 106 0.00001 wt % + Yellow No. 5 0.0001 wt %
[5] = Red No. 106 0.00001 wt % + Yellow No. 203 0.0001 wt %
[6] = Red No. 213 0.00001 wt % + Blue No. 1 0.00001 wt %
[7] = Red No. 227 0.0001 wt % + Yellow No. 5 0.0001 wt %
[8] = Red No. 227 0.0001 wt % + Yellow No. 203 0.0001 wt %
[9] = Red No. 401 0.0001 wt % + Blue No. 1 0.00001 wt %
[10] = Red No. 401 0.0001 wt % + Green No. 3 0.00001 wt %
[11] = Yellow No. 203 0.0001 wt % + Yellow No. 5 0.0001 wt %
[12] = drug 2-o-α-α-glucopyranosyl-L-ascorbic acid 2.0
[13] = drug Dibutylhydroxytoluene 0.01
[14] = drug Dipotassium glycyrrhizinate 0.05
[15] = drug L-ascorbic acid 2-(dl-α-tocopheryl hydrogen phosphate) potassium salt 0.01
[16] = Base perfume Fruity 0.03 wt %, photostabilizer 0.1 wt %
[17] = Base perfume Muguet 0.03 wt %, photostabilizer 0.05 wt %
[18] = Base perfume Rose 0.03 wt %, photostabilizer 0.05 wt %
[19] = Base perfume Spicy 0.03 wt %, photostabilizer 0.2 wt %
[20] = Base perfume Woody 0.03 wt %, photostabilizer 0.1 wt %
[21] = Natural perfume Jasmine oil 0.03 wt %, photostabilizer 0.05 wt %
[22] = Natural perfume Lavender oil 0.03 wt %, photostabilizer 0.1 wt %
[23] = Natural perfume Neroli oil 0.03 wt %, photostabilizer 0.1 wt %
[24] = Natural perfume Rose oil 0.03 wt %, photostabilizer 0.05 wt %
[25] = Natural perfume Ylang ylang oil 0.03 wt %, photostabilizer 0.2 wt %
[26] = Synthetic perfume Citral 0.03 wt %, photostabilizer 0.1 wt %
[27] = Synthetic perfume Limonene 0.03 wt %, photostabilizer 0.05 wt %
[28] = Synthetic perfume Linalool 0.03 wt %, photostabilizer 0.05 wt %
[29] = Synthetic perfume Linalyl acetate 0.03 wt %, photostabilizer 0.1 wt %
[30] = Synthetic perfume Rose oxide 0.03 wt %, photostabilizer 0.2 wt %

For `COc1ccc(C(=O)CC(=O)c2ccc(C(C)(C)C)cc2)cc1` [4-tert-Butyl-4′-methoxy-di-benzoylmethane, reference compound], the “Sunlight exposure (80 MJ) Appearance” value ([1]; Blue No. 1 0.0001 wt %) was “B”, the “Sunlight exposure (80 MJ) ΔE” value ([1]; Blue No. 1 0.0001 wt %) was 1.49 and the “Sunlight exposure (80 MJ) Appearance” value ([1]; Green No. 3 0.0001 wt %) was “B”. The “Sunlight exposure (80 MJ) ΔE” value ([1]; Green No. 3 0.0001 wt %) was 0.62, the “Sunlight exposure (80 MJ) Appearance” value [1, 4] was “B” and the “Sunlight exposure (80 MJ) ΔE” value [1, 4] was 0.92. For the same compound, the “Sunlight exposure (80 MJ) Appearance” value [1, 5] was “B”, the “Sunlight exposure (80 MJ) ΔE” value [1, 5] was 1.02 and the “Sunlight exposure (80 MJ) Appearance” value ([1]; Red No. 106 0.0001 wt %) was “B”. For the same compound, the “Sunlight exposure (80 MJ) ΔE” value ([1]; Red No. 106 0.0001 wt %) was 1.02, the “Sunlight exposure (80 MJ) Appearance” value [1, 6] was “B” and the “Sunlight exposure (80 MJ) ΔE” value [1, 6] was 1.17. For the same compound, the “Sunlight exposure (80 MJ) Appearance” value ([1]; Red No. 213 0.0001 wt %) was “B”, the “Sunlight exposure (80 MJ) ΔE” value ([1]; Red No. 213 0.0001 wt %) was 1.02 and the “Sunlight exposure (80 MJ) Appearance” value [1, 7] was “B”. The “Sunlight exposure (80 MJ) ΔE” value [1, 7] was 0.80, the “Sunlight exposure (80 MJ) Appearance” value [1, 8] was “B” and the “Sunlight exposure (80 MJ) ΔE” value [1, 8] was 1.12. For the same compound, the “Sunlight exposure (80 MJ) Appearance” value ([1]; Red No. 227 0.0001 wt %) was “B”, the “Sunlight exposure (80 MJ) ΔE” value ([1]; Red No. 227 0.0001 wt %) was 0.95 and the “Sunlight exposure (80 MJ) Appearance” value [1, 9] was “B”. For the same compound, the “Sunlight exposure (80 MJ) ΔE” value [1, 9] was 0.93, the “Sunlight exposure (80 MJ) Appearance” value [1, 10] was “B” and the “Sunlight exposure (80 MJ) ΔE” value [1, 10] was 0.99. For the same compound, the “Sunlight exposure (80 MJ) Appearance” value ([1]; Red No. 401 0.001 wt %) was “B”, the “Sunlight exposure (80 MJ) ΔE” value ([1]; Red No. 401 0.001 wt %) was 1.02 and the “Sunlight exposure (80 MJ) Appearance” value ([1]; Yellow No. 5 0.001 wt %) was “B”. For the same compound, the “Sunlight exposure (80 MJ) ΔE” value ([1]; Yellow No. 5 0.001 wt %) was 0.88, the “Sunlight exposure (80 MJ) Appearance” value [1, 11] was “A” and the “Sunlight exposure (80 MJ) ΔE” value [1, 11] was 0.48. The “Sunlight exposure (80 MJ) Appearance” value ([1]; Yellow No. 203 0.001 wt %) was “B”, the “Sunlight exposure (80 MJ) ΔE” value ([1]; Yellow No. 203 0.001 wt %) was 0.68 and the “Sunlight exposure (80 MJ) Appearance” value [2, 12] was “B”. For the same compound, the “Sunlight exposure (80 MJ) Residual yield [%]” value [2, 12] was 97.0%, the “Sunlight exposure (80 MJ) Appearance” value [2, 13] was “B” and the “Sunlight exposure (80 MJ) Residual yield [%]” value [2, 13] was 95.2%. For the same compound, the “Sunlight exposure (80 MJ) Appearance” value [2, 14] was “B”, the “Sunlight exposure (80 MJ) Residual yield [%]” value [2, 14] was 96.6% and the “Sunlight exposure (80 MJ) Appearance” value [2, 15] was “B”. The “Sunlight exposure (80 MJ) Residual yield [%]” value [2, 15] was 94.5%, the “Sunlight exposure (80 MJ) Appearance” value ([2]; drug Salicylic acid 0.1) was “B” and the “Sunlight exposure (80 MJ) Residual yield [%]” value ([2]; drug Salicylic acid 0.1) was 97.2%. For the same compound, the “Sunlight exposure (80 MJ) Smell evaluation” value [3, 16] was “B”, the “Sunlight exposure (80 MJ) Smell evaluation” value [3, 17] was “B” and the “Sunlight exposure (80 MJ) Smell evaluation” value [3, 18] was “B”. The “Sunlight exposure (80 MJ) Smell evaluation” value [3, 19] was “B”, the “Sunlight exposure (80 MJ) Smell evaluation” value [3, 20] was “B” and the “Sunlight exposure (80 MJ) Smell evaluation” value [3, 21] was “B”. The “Sunlight exposure (80 MJ) Smell evaluation” value [3, 22] was “B”, the “Sunlight exposure (80 MJ) Smell evaluation” value [3, 23] was “B” and the “Sunlight exposure (80 MJ) Smell evaluation” value [3, 24] was “B”. The “Sunlight exposure (80 MJ) Smell evaluation” value [3, 25] was “B”, the “Sunlight exposure (80 MJ) Smell evaluation” value [3, 26] was “B” and the “Sunlight exposure (80 MJ) Smell evaluation” value [3, 27] was “B”. The “Sunlight exposure (80 MJ) Smell evaluation” value [3, 28] was “B”, the “Sunlight exposure (80 MJ) Smell evaluation” value [3, 29] was “B” and the “Sunlight exposure (80 MJ) Smell evaluation” value [3, 30] was “B”.

For `CCCCCCCCOC(=O)C=Cc1ccc(OC)cc1` [Octyl p-methoxycinnamate, reference compound], the “Sunlight exposure (80 MJ) Appearance” value ([1]; Blue No. 1 0.0001 wt %) was “C”, the “Sunlight exposure (80 MJ) ΔE” value ([1]; Blue No. 1 0.0001 wt %) was 5.23 and the “Sunlight exposure (80 MJ) Appearance” value ([1]; Green No. 3 0.0001 wt %) was “C”. The “Sunlight exposure (80 MJ) ΔE” value ([1]; Green No. 3 0.0001 wt %) was 1.64, the “Sunlight exposure (80 MJ) Appearance” value ([1]; Red No. 106 0.0001 wt %) was “C” and the “Sunlight exposure (80 MJ) ΔE” value ([1]; Red No. 106 0.0001 wt %) was 1.95. The “Sunlight exposure (80 MJ) Appearance” value ([1]; Red No. 213 0.0001 wt %) was “C”, the “Sunlight exposure (80 MJ) ΔE” value ([1]; Red No. 213 0.0001 wt %) was 2.55 and the “Sunlight exposure (80 MJ) Appearance” value ([1]; Red No. 227 0.0001 wt %) was “C”. For the same compound, the “Sunlight exposure (80 MJ) ΔE” value ([1]; Red No. 227 0.0001 wt %) was 1.22, the “Sunlight exposure (80 MJ) Appearance” value ([1]; Red No. 401 0.001 wt %) was “C” and the “Sunlight exposure (80 MJ) ΔE” value ([1]; Red No. 401 0.001 wt %) was 4.76. For the same compound, the “Sunlight exposure (80 MJ) Appearance” value ([1]; Yellow No. 5 0.001 wt %) was “C”, the “Sunlight exposure (80 MJ) ΔE” value ([1]; Yellow No. 5 0.001 wt %) was 1.56 and the “Sunlight exposure (80 MJ) Appearance” value ([1]; Yellow No. 203 0.001 wt %) was “C”. For the same compound, the “Sunlight exposure (80 MJ) ΔE” value ([1]; Yellow No. 203 0.001 wt %) was 2.43, the “Sunlight exposure (80 MJ) Appearance” value [2, 12] was “C” and the “Sunlight exposure (80 MJ) Residual yield [%]” value [2, 12] was 92.3%. The “Sunlight exposure (80 MJ) Appearance” value [2, 13] was “C”, the “Sunlight exposure (80 MJ) Residual yield [%]” value [2, 13] was 71.7% and the “Sunlight exposure (80 MJ) Appearance” value [2, 14] was “C”. For the same compound, the “Sunlight exposure (80 MJ) Residual yield [%]” value [2, 14] was 90.8%, the “Sunlight exposure (80 MJ) Appearance” value [2, 15] was “C” and the “Sunlight exposure (80 MJ) Residual yield [%]” value [2, 15] was 82.1%. For the same compound, the “Sunlight exposure (80 MJ) Appearance” value ([2]; drug Salicylic acid 0.1) was “C”, the “Sunlight exposure (80 MJ) Residual yield [%]” value ([2]; drug Salicylic acid 0.1) was 92.2% and the “Sunlight exposure (80 MJ) Smell evaluation” value [3, 16] was “C”. The “Sunlight exposure (80 MJ) Smell evaluation” value [3, 17] was “C”, the “Sunlight exposure (80 MJ) Smell evaluation” value [3, 18] was “C” and the “Sunlight exposure (80 MJ) Smell evaluation” value [3, 19] was “C”. For the same compound, the “Sunlight exposure (80 MJ) Smell evaluation” value [3, 20] was “C”, the “Sunlight exposure (80 MJ) Smell evaluation” value [3, 21] was “C” and the “Sunlight exposure (80 MJ) Smell evaluation” value [3, 22] was “C”. The “Sunlight exposure (80 MJ) Smell evaluation” value [3, 23] was “C”, the “Sunlight exposure (80 MJ) Smell evaluation” value [3, 24] was “C” and the “Sunlight exposure (80 MJ) Smell evaluation” value [3, 25] was “C”. For the same compound, the “Sunlight exposure (80 MJ) Smell evaluation” value [3, 26] was “C”, the “Sunlight exposure (80 MJ) Smell evaluation” value [3, 27] was “C” and the “Sunlight exposure (80 MJ) Smell evaluation” value [3, 28] was “C”. For the same compound, the “Sunlight exposure (80 MJ) Smell evaluation” value [3, 29] was “C” and the “Sunlight exposure (80 MJ) Smell evaluation” value [3, 30] was “C”.
